Reference: PMC2095803 (Nucleic Acids Research, 2007)

Legend:
[1] = target: Klenow(exo−) DNA polymerase (Escherichia coli, UniProt P00582, D355A/E357A); test: PEP; assay type: biochemical
[2] = target: T1, Therminator II DNA polymerase (Thermococcus sp., UniProt Q56366, A485L/D141A/E143A/Y409V); test: PEP; assay type: biochemical, Thermococcus species 9ºN-7
T1 sequence (Q56366 1-775 D141A/E143A/Y409V/A485L): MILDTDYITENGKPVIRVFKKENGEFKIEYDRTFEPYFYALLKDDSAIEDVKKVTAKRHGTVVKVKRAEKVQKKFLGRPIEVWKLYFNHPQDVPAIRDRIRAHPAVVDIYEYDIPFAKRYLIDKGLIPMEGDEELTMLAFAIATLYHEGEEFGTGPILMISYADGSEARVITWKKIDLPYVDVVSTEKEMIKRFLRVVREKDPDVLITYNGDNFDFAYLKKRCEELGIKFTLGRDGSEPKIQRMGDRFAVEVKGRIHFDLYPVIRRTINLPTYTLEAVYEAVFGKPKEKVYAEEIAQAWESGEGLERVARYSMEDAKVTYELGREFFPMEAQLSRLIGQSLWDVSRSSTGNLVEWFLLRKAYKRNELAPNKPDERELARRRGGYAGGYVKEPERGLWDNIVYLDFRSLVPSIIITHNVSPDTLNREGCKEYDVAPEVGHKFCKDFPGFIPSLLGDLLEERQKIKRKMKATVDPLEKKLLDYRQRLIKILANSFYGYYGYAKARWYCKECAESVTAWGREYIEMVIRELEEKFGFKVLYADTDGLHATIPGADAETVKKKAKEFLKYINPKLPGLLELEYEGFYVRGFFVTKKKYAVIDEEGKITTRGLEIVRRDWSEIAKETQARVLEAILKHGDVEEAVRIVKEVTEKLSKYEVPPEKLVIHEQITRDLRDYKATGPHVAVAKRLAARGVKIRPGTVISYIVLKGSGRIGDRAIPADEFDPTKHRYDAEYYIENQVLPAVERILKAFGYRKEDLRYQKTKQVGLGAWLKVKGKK

[3] = target: T2, Vent(exo−) DNA polymerase (Thermococcus litoralis, UniProt P30317, D141A/E143A); test: PEP; assay type: biochemical
T2 sequence (P30317 with tags, fused parts or gaps D141A/E143A): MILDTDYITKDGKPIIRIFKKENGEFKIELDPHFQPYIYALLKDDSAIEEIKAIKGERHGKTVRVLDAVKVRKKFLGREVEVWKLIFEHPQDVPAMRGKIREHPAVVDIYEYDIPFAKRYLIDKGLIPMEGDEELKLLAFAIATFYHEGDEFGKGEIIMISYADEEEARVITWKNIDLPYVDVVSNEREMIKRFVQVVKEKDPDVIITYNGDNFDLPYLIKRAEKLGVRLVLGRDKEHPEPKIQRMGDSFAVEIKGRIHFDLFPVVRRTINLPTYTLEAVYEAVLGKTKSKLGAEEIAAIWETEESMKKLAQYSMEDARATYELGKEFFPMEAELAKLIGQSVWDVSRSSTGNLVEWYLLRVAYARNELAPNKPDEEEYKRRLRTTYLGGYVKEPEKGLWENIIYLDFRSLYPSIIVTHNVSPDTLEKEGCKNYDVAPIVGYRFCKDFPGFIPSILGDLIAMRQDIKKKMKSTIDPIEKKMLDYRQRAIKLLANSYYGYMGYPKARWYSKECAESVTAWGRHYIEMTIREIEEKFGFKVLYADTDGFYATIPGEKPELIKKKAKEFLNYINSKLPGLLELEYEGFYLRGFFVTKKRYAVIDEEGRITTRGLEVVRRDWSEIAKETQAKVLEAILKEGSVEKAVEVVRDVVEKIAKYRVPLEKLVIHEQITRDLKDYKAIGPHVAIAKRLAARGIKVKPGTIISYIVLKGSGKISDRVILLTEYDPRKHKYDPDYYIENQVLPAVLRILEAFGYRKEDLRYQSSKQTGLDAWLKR

Bst DNA polymerase = target: T3, Bst DNA polymerase (Geobacillus stearothermophilus, UniProt P52026); test: PEP mismatch; assay type: biochemical, Bacillus stearothermophilus
T3 sequence (P52026 289-876 limits assumed): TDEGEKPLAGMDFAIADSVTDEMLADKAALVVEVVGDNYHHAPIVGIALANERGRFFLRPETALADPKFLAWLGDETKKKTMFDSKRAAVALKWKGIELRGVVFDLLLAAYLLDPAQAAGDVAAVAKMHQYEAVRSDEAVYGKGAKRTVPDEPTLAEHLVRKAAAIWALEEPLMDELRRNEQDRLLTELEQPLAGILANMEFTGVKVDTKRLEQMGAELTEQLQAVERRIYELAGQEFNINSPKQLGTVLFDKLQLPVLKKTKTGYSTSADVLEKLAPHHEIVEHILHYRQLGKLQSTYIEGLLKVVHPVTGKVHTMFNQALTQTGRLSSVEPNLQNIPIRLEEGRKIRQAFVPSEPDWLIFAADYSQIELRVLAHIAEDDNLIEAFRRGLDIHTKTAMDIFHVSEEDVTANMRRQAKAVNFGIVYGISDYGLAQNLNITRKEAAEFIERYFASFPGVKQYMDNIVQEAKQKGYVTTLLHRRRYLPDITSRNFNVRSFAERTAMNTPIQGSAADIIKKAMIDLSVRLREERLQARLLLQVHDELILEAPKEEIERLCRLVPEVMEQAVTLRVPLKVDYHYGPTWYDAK

[4] = Klenow(exo−), ratio of IC50 values
[5] = Therminator II, ratio of IC50 values

Row | SMILES | IC50 [1] | Incorporation bias ddATP/dATP [1, 4] | IC50 [2] | Incorporation bias ddATP/dATP [2, 5] | IC50 [3] | Mismatch incorporation (Bst DNA polymerase; final concentration of 500 μM (data not shown)) | Incorporation bias Cpd IIIc/dATP [1, 4] | Incorporation bias Cpd IIIc/ddATP [1, 4] | Incorporation bias Cpd IIIc/dATP [2, 5] | Incorporation bias Cpd IIIc/ddATP [2, 5] | Discrimination ratio, cytosine–adenine mismatch over complement thymidine base (Bst DNA polymerase; Bst, C template base (oligoTemplate)) | Nucleotide discrimination, IC50 of mismatched versus matched bases (Bst DNA polymerase; Bst, mismatched template bases A, C or G)
1 | Nc1ncnc2c1ncn2[C@H]1CC[C@@H](COP(=O)(O)OP(=O)(O)OP(=O)(O)O)O1 [ddATP, 2′,3′-dideoxyadenosine triphosphate, reference compound] | 29 ± 5 nM | 18 | 230 ± 30 nM | 52 | 550 ± 40 nM | did not show mismatch incorporation | – | – | – | – | – | –
2 | O=[N+]([O-])c1ccccc1CNc1ncnc2c1ncn2[C@H]1C[C@H](O)[C@@H](COP(=O)(O)OP(=O)(O)OP(=O)(O)O)O1 [Compound IIIc, N^6-(2-Nitrobenzyl)-2’-deoxyadenosine-5’-triphosphate] | – | – | – | – | 2.1 ± 0.2 nM | – | 2.7 | 0.15 | 1.8 | 0.034 | 1100 fold | greater than two orders of magnitude
